Data as given in the supplement of paper PMC10307832.

Tests used:
Test in all cases: relative viability (nuclei count vs DMSO), 5 days (fraction); higher = more cells survive
Carfilzomib + Foretinib = compound: CC(C)C[C@H](NC(=O)[C@H](CCc1ccccc1)NC(=O)CN1CCOCC1)C(=O)N[C@@H](Cc1ccccc1)C(=O)N[C@@H](CC(C)C)C(=O)[C@@]1(C)CO1 [Carfilzomib] + COc1cc2c(Oc3ccc(NC(=O)C4(C(=O)Nc5ccc(F)cc5)CC4)cc3F)ccnc2cc1OCCCN1CCOCC1 [Foretinib] (partner 0.25 µM)
Outline: (§1)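 Lung cancer cell lines were seeded in 1536-well plates and dosed by pin tool the next day, with either a single drug or a fixed anchor-drug dose combined with five library-drug doses (not always all listed) spaced in √10 steps. Five days later, one step fixed the cells and stained their nuclei (final 0.05% Triton X-100, 1% formaldehyde, 1 ug/ml Hoechst), and nuclei were counted on 4× images. Relative viability is the nuclei count in treated wells divided by the count in vehicle wells, and each value is the median of duplicate plates.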

Carfilzomib + Pemetrexed = compound: CC(C)C[C@H](NC(=O)[C@H](CCc1ccccc1)NC(=O)CN1CCOCC1)C(=O)N[C@@H](Cc1ccccc1)C(=O)N[C@@H](CC(C)C)C(=O)[C@@]1(C)CO1 [Carfilzomib] + Nc1nc2[nH]cc(CCc3ccc(C(=O)N[C@@H](CCC(=O)O)C(=O)O)cc3)c2c(=O)[nH]1 [Pemetrexed] (partner 0.2 µM)
Outline: as §1

Crizotinib + Bortezomib = compound: C[C@@H](Oc1cc(-c2cnn(C3CCNCC3)c2)cnc1N)c1c(Cl)ccc(F)c1Cl [Crizotinib] + CC(C)C[C@H](NC(=O)[C@H](Cc1ccccc1)NC(=O)c1cnccn1)B(O)O [Bortezomib] (partner 0.002 µM)
Outline: as §1

Carfilzomib + Tozasertib = compound: CC(C)C[C@H](NC(=O)[C@H](CCc1ccccc1)NC(=O)CN1CCOCC1)C(=O)N[C@@H](Cc1ccccc1)C(=O)N[C@@H](CC(C)C)C(=O)[C@@]1(C)CO1 [Carfilzomib] + Cc1cc(Nc2cc(N3CCN(C)CC3)nc(Sc3ccc(NC(=O)C4CC4)cc3)n2)n[nH]1 [Tozasertib] (partner 0.1 µM)
Outline: as §1

| Cell Line | relative viability (Carfilzomib + Foretinib; first compound 0.001 µM) | relative viability (Carfilzomib + Foretinib; first compound 0.003162 µM) | relative viability (Carfilzomib + Foretinib; first compound 0.01 µM) | relative viability (Carfilzomib + Foretinib; first compound 0.03162 µM) | relative viability (Carfilzomib + Foretinib; first compound 0.1 µM) | relative viability (Carfilzomib + Pemetrexed; first compound 0.001 µM) | relative viability (Carfilzomib + Pemetrexed; first compound 0.003162 µM) | relative viability (Carfilzomib + Pemetrexed; first compound 0.01 µM) | relative viability (Carfilzomib + Pemetrexed; first compound 0.03162 µM) | relative viability (Carfilzomib + Pemetrexed; first compound 0.1 µM) | relative viability (Crizotinib + Bortezomib; first compound 0.01 µM) | relative viability (Crizotinib + Bortezomib; first compound 0.03162 µM) | relative viability (Crizotinib + Bortezomib; first compound 0.1 µM) | relative viability (Crizotinib + Bortezomib; first compound 0.3162 µM) | relative viability (Crizotinib + Bortezomib; first compound 1 µM) | relative viability (Carfilzomib + Tozasertib; first compound 0.001 µM) | relative viability (Carfilzomib + Tozasertib; first compound 0.01 µM) | relative viability (Carfilzomib + Tozasertib; first compound 0.03162 µM) | relative viability (Carfilzomib + Tozasertib; first compound 0.1 µM) | relative viability (Carfilzomib + Tozasertib; first compound 0.003162 µM) |
| --- | --- | --- | --- | --- | --- | --- | --- | --- | --- | --- | --- | --- | --- | --- | --- | --- | --- | --- | --- | --- |
| NCI-H2347 | 0.958 | 0.909 | 1.43 | 0.698 | 0.181 | 0.456 | 0.44 | 0.423 | 0.403 | 0.272 | 1.02 | 0.919 | 1.15 | 0.95 | 1.14 | 0.54 | 0.619 | 0.493 | 0.151 | – |
| NCI-H2405 | – | 1.06 | 1.07 | 1.07 | 0.305 | 1.02 | 1.14 | 1.04 | 0.898 | 0.205 | 1 | 0.997 | 1.04 | 1.09 | – | – | 0.828 | 0.757 | 0.267 | 0.814 |
| NCI-H3122 | 0.948 | 0.992 | 0.92 | 0.781 | 0.318 | 0.194 | 0.198 | 0.207 | 0.189 | 0.154 | 0.96 | 0.942 | 1.09 | 0.889 | 0.989 | 0.371 | 0.418 | 0.38 | 0.132 | 0.428 |
| PC-3 [JPC-3] | 1.02 | 1.01 | 1.05 | 0.889 | 0.279 | 1.04 | 1.1 | 1.23 | 0.642 | 0.294 | 0.772 | 0.948 | 0.833 | 0.878 | 0.837 | 0.859 | 0.901 | 0.866 | 0.374 | 0.926 |
| PC-14 | 0.979 | 0.958 | 0.996 | 0.826 | 0.081 | 0.145 | 0.14 | 0.197 | 0.0596 | 0.0657 | 0.892 | 0.742 | 0.905 | 0.805 | 0.961 | 0.575 | 0.69 | 0.545 | 0.0359 | 0.677 |
| RERF-LC-KJ | 0.873 | 0.86 | 0.886 | 0.794 | 0.409 | 0.444 | 0.51 | 0.489 | 0.368 | 0.248 | 1.02 | 0.951 | 1.1 | 1 | 1.09 | 0.501 | 0.542 | 0.377 | 0.163 | 0.478 |
| SK-LU-1 | 0.838 | 0.857 | 0.919 | 0.116 | 0.124 | 0.946 | 1.03 | 0.978 | 0.258 | 0.182 | 1.19 | 1.13 | 1.46 | 0.794 | 1.3 | 0.342 | 0.343 | 0.0891 | 0.109 | 0.371 |
| SW 1573 | 0.934 | 1.27 | 0.884 | 0.725 | 0.0812 | 0.809 | 0.927 | 0.613 | 0.071 | 0.0521 | – | 1.04 | 1.04 | 1.19 | 0.836 | 0.193 | 0.23 | 0.0683 | 0.051 | 0.253 |
| UMC-11 | 0.996 | 1.05 | 1.06 | 0.944 | 0.299 | 0.803 | 0.928 | 0.881 | 0.652 | 0.251 | 0.615 | 0.989 | 0.695 | 0.199 | 0.9 | 0.206 | 0.205 | 0.202 | 0.224 | 0.202 |
